Here are results for seven molecules from ChEMBL document CHEMBL3400021, “Systematic synthesis and anti-inflammatory activity of ω-carboxylated menaquinone derivatives--Investigations on identified and putative vitamin K₂ metabolites” (Bioorg Med Chem, 2015).

The subject of series [1] is RAW264.7. The experiment in a line: Cytotoxicity against mouse RAW264.7 cells. In kind it is cell-based.
Series [2] has as its system RAW264.7. The series can be described thus: Antiinflammatory activity in mouse RAW264.7 cells assessed as inhibition of LPS-induced TNF-alpha level at 5 uM incubated for 24 hrs prior to LPS challenge measured after 3 hrs by qRT-PCR analysis relative to control. Type of series: functional.
Series [3] has as its system RAW264.7. The series can be described thus: Antiinflammatory activity in mouse RAW264.7 cells assessed as inhibition of LPS-induced IL-6 level at 5 uM incubated for 24 hrs prior to LPS challenge measured after 3 hrs by qRT-PCR analysis relative to control. Type of series: functional.
The subject of series [4] is RAW264.7. The series can be described thus: Antiinflammatory activity in mouse RAW264.7 cells assessed as inhibition of LPS-induced IL-1beta level at 5 uM incubated for 24 hrs prior to LPS challenge measured after 3 hrs by qRT-PCR analysis relative to control. In kind it is functional.
The test system of series [5] is RAW264.7. The series can be described thus: Antiinflammatory activity in mouse RAW264.7 cells assessed as inhibition of LPS-induced TNF-alpha level at 10 uM incubated for 24 hrs prior to LPS challenge measured after 3 hrs by qRT-PCR analysis relative to control. In kind it is functional.
Series [6] has as its system RAW264.7. The experiment in a line: Antiinflammatory activity in mouse RAW264.7 cells assessed as inhibition of LPS-induced IL-1beta level at 10 uM incubated for 24 hrs prior to LPS challenge measured after 3 hrs by qRT-PCR analysis relative to control. Type of series: functional.
In series [7] the test system is RAW264.7. The series can be described thus: Antiinflammatory activity in mouse RAW264.7 cells assessed as inhibition of LPS-induced IL-6 level at 10 uM incubated for 24 hrs prior to LPS challenge measured after 3 hrs by qRT-PCR analysis relative to control. Type of series: functional.
Series [8] has as its system RAW264.7. The experiment in a line: Antiinflammatory activity in mouse RAW264.7 cells assessed as inhibition of LPS-induced IL-1beta level at 1 uM incubated for 24 hrs prior to LPS challenge measured after 3 hrs by qRT-PCR analysis relative to control. In kind it is functional.
In series [9] the test system is RAW264.7. The experiment in a line: Antiinflammatory activity in mouse RAW264.7 cells assessed as inhibition of LPS-induced IL-6 level at 1 uM incubated for 24 hrs prior to LPS challenge measured after 3 hrs by qRT-PCR analysis relative to control. In kind it is functional.
Series [10] deals with RAW264.7. The experiment in a line: Antiinflammatory activity in mouse RAW264.7 cells assessed as inhibition of LPS-induced TNF-alpha level at 1 uM incubated for 24 hrs prior to LPS challenge measured after 3 hrs by qRT-PCR analysis relative to control. Type of series: functional.

With `CC1=C(C/C=C(\C)CC/C=C(\C)CCC(=O)O)C(=O)c2ccccc2C1=O`, in the series with RAW264.7 [1], the Activity result was “Non-toxic”. Further, the results for the inhibition at 5 µM in the series with RAW264.7 [2], in the series on RAW264.7 [3] and in the series on RAW264.7 [4] were 26.3%, 52.1% and 51.5%, respectively.

For the molecule `CC1=C(C/C=C(\C)C(=O)O)C(=O)c2ccccc2C1=O`, the inhibition at 10 µM with RAW264.7 [5] was 20.8%; in the series with RAW264.7 [6], 40.6%; in the series on RAW264.7 [7] it was 34.4%. In addition, in the series on RAW264.7 [1], the Activity entry is “Non-toxic”.

Regarding `CC1=C(C/C=C(\C)CC/C=C(\C)CC/C=C(\C)C(=O)O)C(=O)c2ccccc2C1=O`, the results for the inhibition at 10 µM with RAW264.7 [5], with RAW264.7 [6] and in the series with RAW264.7 [7] were 24.4%, 37% and 46.3%, respectively. The Activity result in the series with RAW264.7 [1] is on record as “Non-toxic”.

`CC1=C(C/C=C(\C)CCC(=O)O)C(=O)c2ccccc2C1=O`: in the series with RAW264.7 [1], the Activity result was “Non-toxic”. Besides, the inhibition at 5 µM turned out to be 25.2% in the series on RAW264.7 [2], 29.8% in the series with RAW264.7 [3] and 28.3% in the series on RAW264.7 [4].

Turning to `CC1=C(C/C=C(\C)CC/C=C(\C)C(=O)O)C(=O)c2ccccc2C1=O`, the Activity entry in the series with RAW264.7 [1] is reported as “Non-toxic”. The inhibition at 1 µM is 43.5% with RAW264.7 [8], 47.7% in the series with RAW264.7 [9] and 7.7% in the series with RAW264.7 [10].

For the molecule `CC1=C(C/C=C(\C)CC/C=C(\C)CC/C=C(\C)CCC(=O)O)C(=O)c2ccccc2C1=O`, the inhibition at 10 µM with RAW264.7 [5] is 2.2%; with RAW264.7 [6], 21.3%; with RAW264.7 [7], 10.6%. Also, the Activity entry with RAW264.7 [1] was “Non-toxic”.

Regarding `CC1=C(CCC(C)C(=O)O)C(=O)c2ccccc2C1=O` (stereo not drawn), in the series with RAW264.7 [1], the Activity entry was “Non-toxic”. The inhibition at 1 µM with RAW264.7 [8] is 23.1%; with RAW264.7 [9], 20.6%; with RAW264.7 [10], 17.3%.
